Test results reported in patent EP3827825A1, “USE OF 3, 4-DIARYLPYRAZOLES AS ANTIBACTERIAL AGENTS” (Wageningen Universiteit, priority 2019, dated 2021).
≈ marks a conversion by molar mass, not a printed value. Like-named read-outs stand apart in the source and are kept apart here.

Experiments:
[1] = tested on: P. multocida; assay: Minimal inhibitory concentration (MIC), double-dilution in broth, OD600; type: cell-based, Pasteurella multocida; settings: unit assumed
Description: (§1) In short, a stock solution of 5 mg/mL of HKIs in DMSO was made. This stock was diluted to 50 µg/mL in broth in a 96 well plate. Dilutions were made (factor 2) directly in the plate with a multi-channel pipet. Bacteria cultured in suspension overnight were then added to the plate (except negative control) and the plate was incubated for 24 hours. After 24 hours the OD600 was measured using a spectrophotometer. A positive control (with bacteria, without HKI) was also measured on each plate. The MICs were not determined in duplo/triplicate in the same experiment, however, the MICs of several HKIs were measured in different experiments and no major differences (max. 1x dilution) were found in the MICs between the experiments.
(§2) Bacterial strains used in this study for antibacterial susceptibility testing (Table S2) were propagated using standard microbiological procedures. Minimal inhibitory concentrations (MICs) were determined following a standard double-dilution method (42), 73. MICs were recorded as the lowest concentration of the compound where no visible growth was observed. After plating the dilutions around the MIC or growing them in fresh MH media, minimal bactericidal concentration (MBC) was recorded as the lowest concentration of the compound at which no colonies were formed or no growth was observed, respectively. For M. marinum, MICs were determined in Middlebrook 7H9 broth (Difco) and MICs were determined after 3 days incubation at 30 °C.
(§3) Grow the bacterial colonies to be tested from single colonies on an agar plate in LB broth or suitable bacterial growth medium overnight at 37°C. Prepare a 5 mg/mL stock solution of compounds to be tested in DMSO. One 96-well plate per bacterial strain was prepared. First, put 50 uL of medium to each well. Add 48 µL of medium to all wells in row A. Pipet 2 µL of antimicrobial master stock into the top well (row A). Beware, the antimicrobial concentration will be diluted 2x after adding the bacterial culture. Total volume in each well will be 100 µL. In A11, pipet 2 µL of DMSO. Make a serial dilution from row A to row H, pipetting 50 µL from the previous row into the new one. Mix well by pipetting up and down. Discard the last 50 µL so that there is 50 µl in each well In a clean, new plastic pipetting cup, dilute the overnight bacterial culture 100 times. Add 100 µL of bacterial overnight culture to 9900 µL of medium. Mix the suspension well. Once the serial dilutions are complete for all antimicrobial compounds, add 50 µL of diluted overnight bacterial culture to each well (except column 12). Mix by pipetting or put the plate on the shaker. Per 2 plates, close with parafilm around the edges and place in the incubator overnight. After overnight culturing, measure bacterial growth on the SpectraMax. The lowest concentration where no growth is observed is the MIC. To determine the MIB pipette 5 µL from each well of the 96 well plate where now growth was observed on to an LB agar plate, without antimicrobial. Put the plates in the incubator to grow overnight. The minimal concentration where no growth can be seen on the agar plate is the MBC.

[2] = tested on: E. faecium Van A; assay: as above; type: cell-based, Enterococcus faecium; settings: unit assumed
Description: as §1, §2, §3

[3] = tested on: S. aureus Newman; assay: as above; type: cell-based, Staphylococcus aureus Newman; settings: unit assumed
Description: as §1, with “plate.” for “plate. The MICs were not determined in duplo/triplicate in the same experiment, however, the MICs of several HKIs were measured in different experiments and no major differences (max. 1x dilution) were found in the MICs between the experiments.”
Bacterial strains used in this study for antibacterial susceptibility testing (Table S2) were propagated using standard microbiological procedures. Minimal inhibitory concentrations (MICs) were determined following a standard double-dilution method (42), 73. […] For M. marinum, MICs were determined in Middlebrook 7H9 broth (Difco) and MICs were determined after 3 days incubation at 30 °C.
as §3

[4] = tested on: M. marinum; assay: Minimal inhibitory concentration (MIC), Middlebrook 7H9 broth, 3 days at 30 °C; type: cell-based, Mycobacterium marinum; settings: unit assumed
Description: as §1, §2, §3

[5] = tested on: S. suis; assay: Minimal inhibitory concentration (MIC), double-dilution in broth, OD600; type: cell-based, Streptococcus suis; settings: unit assumed
Description: as §1, §2, §3

[6] = tested on: E. coli JW5503; type: cell-based, Escherichia coli; settings: unit assumed
Description: as §1, §2, §3

[7] = tested on: NRK-52E; assay: Cell toxicity, Alamar blue assay, 24 hours exposure; type: cell-based; settings: Rattus norvegicus
Description: Toxicity was primarily determined by measuring cytotoxicity with the Alamar blue assay. In short, cells (HEK293, NRK-52E and Caco-2) were plated in 96-well plates and cultured overnight. HKI compounds were diluted to concentrations ranging from 0.39 to 500 µg/mL in serum-free medium and added to the cells.
After exposure, cells were incubated for 24 hours. Experiments were mostly performed by single measurement. […] After 24 hours HKIs were removed from the cells and Alamar blue was added, incubated for 45 minutes and fluorescence was measured on a spectrophotometer. Alamar blue measures the conversion of blue, low fluorescent resazurin into high fluorescent pink resorufin. This conversion can only be made in viable mitochondria in viable cells and therefore this dye provides a measure for cytotoxicity.

[8] = read-out: IC50 NRK-52E (50 mg/mL stock)

SMILES | MIC P. multocida [1] | MIC E. faecium Van A [2] | MIC S. aureus Newman [3] | MIC M. marinum [4] | MIC S. suis [5] | MIC E. coli JW5503 [6] | IC50 [7, 8] | IC50 ([7]; read-out: IC50 NRK-52E (50 mg/mL stock), 50 mg/mL stock)
Cc1[nH]nc(-c2ccc(O)cc2O)c1-c1ccc(Br)cc1 [May-1, 4-[4-(4-bromophenyl)-5-methyl-1∼{H}-pyrazol-3-yl]resorcinol] | 12.5 µg/mL (≈ 36.2 µM) | 12.5 µg/mL (≈ 36.2 µM) | 12.5 µg/mL (≈ 36.2 µM) | 50 µg/mL (≈ 145 µM) | 6.25 µg/mL (≈ 18.1 µM) | 3.13 µg/mL (≈ 9.07 µM) | 5.95 µg/mL (≈ 17.2 µM) | 
COc1ccc(-c2c(C(F)(F)F)n[nH]c2-c2ccc(O)cc2O)cc1OC [May-2, 4-[4-(3,4-dimethoxyphenyl)-5-(trifluoromethyl)-1∼{H}-pyrazol-3-yl]resorcinol] | > 50 µg/mL | 50 µg/mL (≈ 131 µM) | 50 µg/mL (≈ 131 µM) | > 50 µg/mL | 50 µg/mL (≈ 131 µM) |  | 13.9 µg/mL (≈ 36.6 µM) | 
COc1ccc(-c2[nH]nc(C(F)(F)F)c2-c2ccc(OC)c(OC)c2)c(O)c1 [May-5, 2-[4-(3,4-dimethoxyphenyl)-5-(trifluoromethyl)-1∼{H}-pyrazol-3-yl]-5-methoxy-phenol] | > 50 µg/mL |  | 25 µg/mL (≈ 63.4 µM) | > 50 µg/mL | 50 µg/mL (≈ 127 µM) |  | 6.11 µg/mL (≈ 15.5 µM) | 
COc1ccc(-c2c(-c3ccc(OC)cc3O)n[nH]c2C(F)(F)F)cc1 [May-8] | > 50 µg/mL |  | 12.5 µg/mL (≈ 34.3 µM) | 50 µg/mL (≈ 137 µM) | 12.5 µg/mL (≈ 34.3 µM) | 3.13 µg/mL (≈ 8.59 µM) | 2.64 µg/mL (≈ 7.25 µM) | 
COc1ccc(-c2c(-c3ccc(O)cc3O)n[nH]c2C(F)(F)F)cc1 [May-9, 4-[4-(4-methoxyphenyl)-5-(trifluoromethyl)-1∼{H}-pyrazol-3-yl]resorcinol] | 50 µg/mL (≈ 143 µM) | 25 µg/mL (≈ 71.4 µM) | 12.5 µg/mL (≈ 35.7 µM) | > 50 µg/mL | 12.5 µg/mL (≈ 35.7 µM) | 3.13 µg/mL (≈ 8.94 µM) | ~3.15 µg/mL (≈ 8.99 µM) | 
Oc1ccc(-c2[nH]nc(C(F)(F)F)c2-c2ccccc2)c(O)c1 [May-10, 4-[4-phenyl-5-(trifluoromethyl)-1∼{H}-pyrazol-3-yl]resorcinol] | 25 µg/mL (≈ 78.1 µM) | 12.5 µg/mL (≈ 39 µM) | 6.25 µg/mL (≈ 19.5 µM) | 50 µg/mL (≈ 156 µM) | 12.5 µg/mL (≈ 39 µM) |  | ~3.61 µg/mL (≈ 11.3 µM) | 
COc1ccccc1-c1c(-c2ccc(O)cc2O)n[nH]c1C(F)(F)F [May-13, 4-[4-(2-methoxyphenyl)-5-(trifluoromethyl)-1∼{H}-pyrazol-3-yl]resorcinol] | 50 µg/mL (≈ 143 µM) | 50 µg/mL (≈ 143 µM) | 25 µg/mL (≈ 71.4 µM) | > 50 µg/mL | 25 µg/mL (≈ 71.4 µM) |  | 8.06 µg/mL (≈ 23 µM) | 
COc1ccc(-c2c(-c3ccc(OC)c(C)c3O)n[nH]c2C(F)(F)F)cc1 [Sep-1, 3-methoxy-6-[4-(4-methoxyphenyl)-5-(trifluoromethyl)-1∼{H}-pyrazol-3-yl]-2-methyl-phenol] | > 50 µg/mL | 50 µg/mL (≈ 132 µM) | 25 µg/mL (≈ 66.1 µM) | > 50 µg/mL | 50 µg/mL (≈ 132 µM) | 6.25 µg/mL (≈ 16.5 µM) | 23.2 µg/mL (≈ 61.3 µM) | 
CCOc1ccc(-c2n[nH]c(C(F)(F)F)c2-c2ccccc2)c(O)c1C [Sep-3, 3-ethoxy-2-methyl-6-[4-phenyl-5-(trifluoromethyl)-1∼{H}-pyrazol-3-yl]phenol] | > 50 µg/mL | 25 µg/mL (≈ 69 µM) | 12.5 µg/mL (≈ 34.5 µM) | > 50 µg/mL | 25 µg/mL (≈ 69 µM) | 6.25 µg/mL (≈ 17.2 µM) | ~15.5 µg/mL (≈ 42.8 µM) | 
Cc1ccc(COc2ccc(-c3n[nH]c(C(F)(F)F)c3-c3cccc4ccccc34)c(O)c2)cc1 [Sep-4, 5-(4-methylbenzyl)oxy-2-[4-(1-naphthyl)-5-(trifluoromethyl)-1∼{H}-pyrazol-3-yl]phenol] | > 50 µg/mL | 25 µg/mL (≈ 52.7 µM) | 3.13 µg/mL (≈ 6.6 µM) | 50 µg/mL (≈ 105 µM) | 25 µg/mL (≈ 52.7 µM) | > 50 µg/mL | 13.9 µg/mL (≈ 29.2 µM) | 
CCCCCOc1ccc(-c2n[nH]c(C(F)(F)F)c2-c2ccccc2Cl)c(O)c1 [Sep-5, 2-[4-(2-chlorophenyl)-5-(trifluoromethyl)-1∼{H}-pyrazol-3-yl]-5-pentoxyphenol] | > 50 µg/mL | 12.5 µg/mL (≈ 29.4 µM) | 3.13 µg/mL (≈ 7.37 µM) | 50 µg/mL (≈ 118 µM) | 12.5 µg/mL (≈ 29.4 µM) | > 50 µg/mL | ~7.46 µg/mL (≈ 17.6 µM) | 
COc1ccc(-c2c(C(F)(F)F)n[nH]c2-c2ccc(OCc3ccc([N+](=O)[O-])cc3)cc2O)cc1 [Sep-6, 2-[4-(4-methoxyphenyl)-5-(trifluoromethyl)-1∼{H}-pyrazol-3-yl]-5-(4-nitrobenzyl)oxyphenol] | > 50 µg/mL | 6.25 µg/mL (≈ 12.9 µM) | 3.13 µg/mL (≈ 6.45 µM) | 50 µg/mL (≈ 103 µM) | 12.5 µg/mL (≈ 25.8 µM) | 12.5 µg/mL (≈ 25.8 µM) | 8.42 µg/mL (≈ 17.3 µM) | 
C=C(C)COc1ccc(-c2[nH]nc(C(F)(F)F)c2-c2ccc(OC)cc2)c(O)c1 [Sep-7, 2-[4-(4-methoxyphenyl)-5-(trifluoromethyl)-1∼{H}-pyrazol-3-yl]-5-(2-methylallyloxy)phenol] | > 50 µg/mL | 12.5 µg/mL (≈ 30.9 µM) | 6.25 µg/mL (≈ 15.5 µM) | > 50 µg/mL | 12.5 µg/mL (≈ 30.9 µM) | 6.25 µg/mL (≈ 15.5 µM) | ~7.49 µg/mL (≈ 18.5 µM) | 
COc1ccc(-c2c(C(F)(F)F)n[nH]c2-c2ccc(OCc3ccccc3F)cc2O)cc1 [Sep-8, 5-(2-fluorobenzyl)oxy-2-[4-(4-methoxyphenyl)-5-(trifluoromethyl)-1∼{H}-pyrazol-3-yl]phenol] | > 50 µg/mL | 6.25 µg/mL (≈ 13.6 µM) | 3.13 µg/mL (≈ 6.83 µM) | > 50 µg/mL | 12.5 µg/mL (≈ 27.3 µM) | 50 µg/mL (≈ 109 µM) | ~14.5 µg/mL (≈ 31.7 µM) | 
Oc1cc(OCc2c(F)cccc2Cl)ccc1-c1[nH]nc(C(F)(F)F)c1-c1ccc(Cl)cc1 [Sep-11, 5-(2-chloro-6-fluorobenzyl)oxy-2-[4-(4-chlorophenyl)-5-(trifluoromethyl)-1∼{H}-pyrazol-3-yl]phenol] | > 50 µg/mL | 6.25 µg/mL (≈ 12.6 µM) | 3.13 µg/mL (≈ 6.29 µM) | > 50 µg/mL | 12.5 µg/mL (≈ 25.1 µM) | > 50 µg/mL | 11.8 µg/mL (≈ 23.8 µM) | 
COc1ccc(-c2n[nH]c(C)c2-c2ccc(Cl)cc2)c(O)c1 [Sep-21, 2-[4-(4-chlorophenyl)-5-methyl-1∼{H}-pyrazol-3-yl]-5-methoxy-phenol] | > 50 µg/mL | 50 µg/mL (≈ 159 µM) | 50 µg/mL (≈ 159 µM) | 50 µg/mL (≈ 159 µM) | > 50 µg/mL |  | 18.2 µg/mL (≈ 57.9 µM) | 
COc1ccccc1-c1c(-c2ccc(OCC(=O)NN)cc2O)n[nH]c1C(F)(F)F [Sep-26, 2-[3-hydroxy-4-[4-(2-methoxyphenyl)-5-(trifluoromethyl)-1∼{H}-pyrazol-3-yl]phenoxy]acetohy drazide] | > 50 µg/mL | 25 µg/mL (≈ 59.2 µM) | > 50 µg/mL | > 50 µg/mL | > 50 µg/mL |  |  | 194 µg/mL (≈ 461 µM)
